Source: patent US20230172984A1, “CLEARANCE OF SENESCENT CELLS BY ACTIVATION OF iNKT CELLS” (THE REGENTS OF THE UNIVERSITY OF CALIFORNIA, priority 2020, published 2023)

Experiments:
[1] = Bleomycin lung injury, hydroxyproline assay (whole lung collagen content); format: in vivo, mouse; conditions: bleomycin 3 U/kg, α-GalCer or vehicle at day 10; FIG. 4D
Method: MATERIALS AND METHODS. Mouse husbandry. All procedures involving mice were performed according to the IACUC standards following ethics approval by the animal committee at the University of California, San Francisco. Male C57BL6/J on chow or HFD fed mice. HFD mice were fed a high-fat diet (60% kcal from fat) from 6 weeks until 22 weeks of age. All experiments on HFD mice were performed at 22-24 weeks total age (16-18 weeks on HFD). Age-matched male C57BL6/J mice on standard rodent chow diet were used as controls. For the lung injury model, 10-week-old male C57BL/6J mice were used. The animals were divided into three groups: the control group, the injured group, and the α-GalCer treated group. The animals in the control group received vehicle only (i.p.) on day 10. The injured group animals received bleomycin (3 U/kg) via the intratracheal route at the start of the experiment (day 0). The animals in the α-GalCer treated groups received bleomycin (3 U/kg) on day 0, and i.p. injection of α-GalCer (2 μg/mouse) on day 10. The animals in all the groups were sacrificed on day 14, and lungs were harvested for isolation of primary pulmonary Alveolar Type II cells (ATII) on the same day. For the hydroxyproline assay, mice were euthanized 21 days after injury. Bleomycin lung injury. […] Absorbance was measured at 550 nm and the values were computed from the standard curve.

[2] = tested on: senescent CD45^− lung cells; experiment: Bleomycin-induced lung injury model, C12FDG assay on lung cells; format: in vivo, mouse
Method: MATERIALS AND METHODS. Mouse husbandry. All procedures involving mice were performed according to the IACUC standards following ethics approval by the animal committee at the University of California, San Francisco. Male C57BL6/J on chow or HFD fed mice. HFD mice were fed a high-fat diet (60% kcal from fat) from 6 weeks until 22 weeks of age. All experiments on HFD mice were performed at 22-24 weeks total age (16-18 weeks on HFD). Age-matched male C57BL6/J mice on standard rodent chow diet were used as controls. For the lung injury model, 10-week-old male C57BL/6J mice were used. The animals were divided into three groups: the control group, the injured group, and the α-GalCer treated group. The animals in the control group received vehicle only (i.p.) on day 10. […] RBCs in cell pellet were lysed by resuspending in 1 mL lysis buffer for 3 min and was neutralized using 10 mL of sterile DMEM medium, centrifuged and the cell pellet resuspended in 1 ml of sterile DMEM containing DNase I. Viability of the cells was analyzed using Vi-Cell XR cell viability analyzer. C12FDG flow cytometry assay. eWAT SVF cells isolated and counted as described above were adjusted to 3×10^6 cells/ml in complete culture media and incubated with 33 μM C12FDG for 1 hr in a 37° C. water bath. […] Samples were analyzed on an Attune acoustic focusing cytometer. […] Data were analyzed with FlowJo (v. 10). […]

Question: Which “lung hydroxyproline content (fibrosis)” value [1] does the source give for `CCCCCCCCCCCCCCCCCCCCCCCCCC(=O)N[C@@H](CO[C@H]1O[C@H](CO)[C@H](O)[C@H](O)[C@H]1O)[C@H](O)[C@H](O)CCCCCCCCCCCCCC` [GalCer, alpha-Galactosylceramide] here?
Answer: significantly reduced lung hydroxyproline content

Question: And the “number of CD45^− C12FDG^+ lung cells” value ([2]; bleomycin 3 U/kg day 0, α-GalCer 2 μg/mouse i.p. day 10, lungs harvested day 14, FIG. 4A)?
Answer: decreased the number of such CD45^− C12FDG^+ lung cells to levels on par with those in the lungs of uninjured control mice

Question: What about the “epithelial and mesenchymal senescent cells in lung” value ([2]; bleomycin-injured mice treated with GalCer) of the same compound?
Answer: both epithelial and mesenchymal senescent cells were affected
